Measurements from publication PMC8620390, “New Multi-Targeted Antiproliferative Agents: Design and Synthesis of IC261-Based Oxindoles as Potential Tubulin, CK1 and EGFR Inhibitors” (Pharmaceuticals, 2021).
Several values for one entry are separate records, joined by “and”; a condition that tells them apart may be missing. Equal values may be shown once. Read-outs that look alike come from different tables or passages of the source. Marks after values point to notes of the source that are not given here.

Tests used:
[1] = system: MCF-7; test: Two-dose antiproliferative screening, SRB assay, MCF-7; assay type: cell-based; details: triplicates; for Growth Inhibition (%) MCF-7 1 μM Average: 72 h; for inhibition at 1 µM / inhibition at 10 µM: Homo sapiens, MCF7, 72 h; for inhibition at 1 µM: read-out: Growth Inhibition (%) MCF-7 1 μM Average; for inhibition at 10 µM: read-out: Growth Inhibition (%) MCF-7 10 μM Average
Procedure: (§1) MCF-7(breast adenocarcinoma), PC-3 (prostate cancer) and COLO-205 (colorectal cancer) were obtained from Nawah Scientific inc., (Mokatam, Cairo, Egypt). Cells were maintained in Dulbecco’s Modified Eagle’s media (DMEM media) supplemented with […] of streptomycin, 100 units/mL of penicillin and 10% of heat-inactivated fetal bovine serum in humidified, 5% (v/v) CO2 atmosphere at 37 °C.
(§2) Cell viability was assessed by the sulforhodamine B (SRB) assay. Aliquots of cell suspension (5 × 10^3 cells, 100 μL) were transferred into 96 well plates and incubated in complete media for 24 h. Cells were treated with another aliquot media (100 μL) containing compounds 3a–f, 4a–f, 6a–f, 7a–f, 9a–b at concentrations of 1 and 10 μM). After 72 h of drug exposure, cells were fixed by replacing media with trichloroacetic acid (TCA, 10%, 150 μL) and incubated at 4 °C for 1 h. The TCA solution was removed, and the cells were washed five times with distilled water. Aliquots of SRB solution (0.4%w/v, 70 μL) were added and incubated in a dark place at room temperature for 10 min. Plates were washed three times with 1% acetic acid and allowed to air dry overnight. Then, a solution of TRIS base and TRIS HCl (TRIS buffer, 10 mM, 150 μL) was added to dissolve protein bound SRB stain. The absorbance was measured at 540 nm using BMGLABTECH®–FLUOstar omega micro-plate reader (Ortenberg, Germany).

[2] = system: PC-3; test: Two-dose antiproliferative screening, SRB assay, PC-3; assay type: cell-based; details: triplicates; for Growth Inhibition (%) PC-3 1 μM Average: 72 h; for inhibition at 1 µM / inhibition at 10 µM: Homo sapiens, PC-3, 72 h; for inhibition at 1 µM: read-out: Growth Inhibition (%) PC-3 1 μM Average; for inhibition at 10 µM: read-out: Growth Inhibition (%) PC-3 10 μM Average
Procedure: as §1, §2

[3] = system: COLO-205; test: IC50 against COLO-205, SRB assay; assay type: cell-based; details: Homo sapiens, 0.001–100 μM
Procedure: as §2
The same procedures used to screen two-dose anticancer activities were applied in determining IC50 values against COLO-205 using SRB assay. Cells were maintained at Roswell Park Memorial Institute media (RPMI media). The test was performed using 0.001–100 μM of compounds 4a (IC261), 4b, 4d, 4e, 6e and 6f. IC50 values were calculated using the equation for Boltzman sigmoidal concentration–response curve using the nonlinear regression fitting models by GraphPad, Prism version 5 (GraphPad Software Inc., La Jolla, CA, USA).

[4] = biological target: T1, EGFR (Homo sapiens, UniProt P00533); test: EGFR kinase assay kit (Kinase-Glo MAX); assay type: biochemical; details: EGFR-TK kinase kit; read-out: EGFR Inhibition IC50 (converted)
T1 construct: enough purified recombinant EGFR enzyme, EGFR substrate, ATP, and kinase assay buffer; purchased Sigma Aldrich
Procedure: The EGFR Kinase Assay Kit (Sigma Aldrich, St. Louis, […], USA) is designed to measure EGFR Kinase activity for screening and profiling applications using Kinase-Glo® MAX as a detection reagent. The EGFR Kinase Assay Kit (Sigma Aldrich, St. Louis, […], USA) comes in a convenient 96-well format, with enough purified recombinant EGFR enzyme, EGFR substrate, ATP, and kinase assay buffer for 100 enzyme reactions. The master mixture (25 μL per well) was prepared out of Kinase assay buffer (6 μL), ATP (500 μM, 1 μL), PTK substrate (50×, 1 μL) and water (17 μL) and added to each well. Inhibitor solution was made by dissolving 4b in a liquid labelled” inhibitor buffer”. An inhibitor solution (5 μL) was then added to each well, labelled as “Test Inhibitor”. For “Positive Control” and “Blank”, add 5 μL inhibitor buffer). EGFR was thawed on ice. Its tube was spun briefly to recover the full content of the tube. The enzyme was diluted with 1× Kinase assay buffer enzyme to 1 ng/μL. The reaction was initiated by adding 20 μL of diluted EGFR enzyme to the wells designated “Positive Control” and “Test Inhibitor Control”. The plate was incubated at 30 °C for 40 min. After the 40-min reaction, the Kinase-Glo Max (50 μL) reagent was added to each well. The plate was covered with aluminum foil, incubated at room temperature for 15 min and the luminescence was measured using the microplate reader.

[5] = biological target: CK1; test: Casein Kinase 1 (CK1) 33P-ATP assay; assay type: biochemical
Procedure: The active CK1, kinase assay buffer, substrate solution and kinase dilution buffer were thawed on ice (^33P-ATP assay Cocktail). In a precooled microcentrifuge tube, 10 μL of kinase solution, 5 μL of substrate solution and 5 μL of cold water (4 °C) were added, then a blank control was set up. Each reaction was initiated by adding 5 μL of ^33P-ATP assay cocktail then incubated for 15 min in a water bath (30 °C), then 20 μL of the reaction mixture were spotted onto an individually precut strip of phosphocellulose P81 paper and allowed to air dry followed by washing using 1% H2SO4 with constant gentle stirring. A radioactive control was set up then 5 μL of γ-^33P-ATP assay cocktail was spotted on P81 paper, the sample was allowed to air dry for 2 min then the radioactivity count was recorded.

T1 sequence (P00533 25-1210): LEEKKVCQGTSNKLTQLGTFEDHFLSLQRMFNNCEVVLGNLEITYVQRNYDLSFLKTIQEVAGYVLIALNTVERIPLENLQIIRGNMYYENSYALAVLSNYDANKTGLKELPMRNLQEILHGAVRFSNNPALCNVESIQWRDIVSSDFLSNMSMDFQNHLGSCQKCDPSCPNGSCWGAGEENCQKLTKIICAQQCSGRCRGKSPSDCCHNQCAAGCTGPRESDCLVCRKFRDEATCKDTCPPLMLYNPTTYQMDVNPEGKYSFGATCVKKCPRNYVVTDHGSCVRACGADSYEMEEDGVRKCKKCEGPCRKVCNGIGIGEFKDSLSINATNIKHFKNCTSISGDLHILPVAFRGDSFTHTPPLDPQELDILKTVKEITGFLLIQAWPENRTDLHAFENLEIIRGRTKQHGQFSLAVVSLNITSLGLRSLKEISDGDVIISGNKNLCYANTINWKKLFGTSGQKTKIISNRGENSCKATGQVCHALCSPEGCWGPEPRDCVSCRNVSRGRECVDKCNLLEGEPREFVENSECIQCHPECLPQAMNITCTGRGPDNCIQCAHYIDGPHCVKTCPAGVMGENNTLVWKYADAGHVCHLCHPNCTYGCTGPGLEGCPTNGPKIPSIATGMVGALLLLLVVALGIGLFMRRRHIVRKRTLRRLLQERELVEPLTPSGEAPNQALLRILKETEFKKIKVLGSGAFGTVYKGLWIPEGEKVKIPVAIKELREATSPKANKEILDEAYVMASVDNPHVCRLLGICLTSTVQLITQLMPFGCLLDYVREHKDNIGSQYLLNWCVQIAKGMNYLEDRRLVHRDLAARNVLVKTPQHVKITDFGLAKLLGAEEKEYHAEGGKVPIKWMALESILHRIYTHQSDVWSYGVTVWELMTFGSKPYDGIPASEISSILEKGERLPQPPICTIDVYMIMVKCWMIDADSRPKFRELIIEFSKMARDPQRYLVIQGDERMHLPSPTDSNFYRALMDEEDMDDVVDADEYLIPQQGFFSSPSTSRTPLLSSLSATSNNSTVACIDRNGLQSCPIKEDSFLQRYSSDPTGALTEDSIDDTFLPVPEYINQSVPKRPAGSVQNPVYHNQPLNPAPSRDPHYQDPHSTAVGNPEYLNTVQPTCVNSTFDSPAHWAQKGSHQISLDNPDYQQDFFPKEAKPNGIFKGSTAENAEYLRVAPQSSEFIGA

Row | Structure (SMILES) | Growth Inhibition (%) MCF-7 1 μM Average [1] | inhibition at 1 µM [1] | inhibition at 10 µM [1] | Growth Inhibition (%) PC-3 1 μM Average [2] | inhibition at 1 µM [2] | inhibition at 10 µM [2] | IC50 [3] | IC50 [4] | CK 1 inhibition IC50 (as printed in μM in discussion) [5] | Casein Kinase I Inhibition IC50 [5] | Casein Kinase I Inhibition IC50 ([5]; IC261)
1 | COc1cc(OC)c(/C=C2/C(=O)Nc3ccccc32)c(OC)c1 [Compound 4a, (E)-3-(2,4,6-trimethoxybenzylidene)indolin-2-one, reference compound] | 43.49 ^c % | 44% | 58.9% | 59.19% | 60% | 67.9% | 200 nM | 321 nM and 340 nM | 2.39 µM | 2.39 µg/mL | 2.39 (4a, IC261) μg/mL
2 | COc1cc(OC)c(/C=C2/C(=O)Nc3cc(Cl)ccc32)c(OC)c1 [Compound 4b, (E)-6-chloro-3-(2,4,6-trimethoxybenzylidene)indolin-2-one] | 45.3% | 46% | 59.1% | 64.05% | 65% | 71.7% | 200 nM | 549 nM |  | 1.92 µg/mL | 
